29 molecules from PubChem BioAssay (NCI) can be followed below.

Holding throughout (test): NCI tumour cell line growth inhibition, 48 h
Assay [1] deals with SNB-75 CNS.
Assay [2] relates to CAKI-1 renal.
The subject of assay [3] is K-562 leukemia.
Assay [4] deals with U251 CNS.
Assay [5] deals with SK-MEL-28 melanoma.
Assay [6] relates to SK-MEL-2 melanoma.

The structures appear in SMILES notation.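 Values below derive from 48-hour exposures of cells grown in 96-well plates, with endpoints linearly interpolated between the two concentrations bracketing the appropriate inhibition level. GI50 marks 50% less growth. TGI: concentration producing complete growth inhibition.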

On to `COC(=O)C1=C(O)c2cc3c(cc2[C@H](c2cc(OC)c(OC)c(OC)c2)C1C(=O)OC)OCO3` (stereo partly drawn), for which the TGI in assay [1] is 66 µM; in assay [2] it was 89.6 µM; in assay [3], more than 100 µM; in assay [4], more than 100 µM; in assay [5], more than 100 µM.

For the molecule `Cc1ccc(Sc2ccc(C)cc2[N+](=O)[O-])c([N+](=O)[O-])c1`, the TGI is more than 100 µM in assay [6]; more than 100 µM in assay [1]; more than 10 µM in assay [2]; more than 100 µM in assay [3]; more than 100 µM in assay [4]; more than 100 µM in assay [5].

Take `CC1CCC(C(C)C)C(O[C@@H]2OC(=O)C[C@@H]2Sc2ccccc2)C1` (stereo partly drawn): the TGI is 34.9 µM in assay [6]; 98.3 µM in assay [1]; 63.6 µM in assay [2]; 42.6 µM in assay [3]; 85.7 µM in assay [5].

As to `C=C1CCc2occ(C)c2C2C1C1=C(CC(C)C1=O)C1OC12C` (stereo not drawn), the TGI in assay [6], in assay [1], in assay [3], in assay [4] and in assay [5] was more than 100 µM in each case.

As to `O=C1CCC2(c3ccccc3)Nc3ncccc3N12` (stereo not drawn), the TGI in assay [6], in assay [1], in assay [2], in assay [3], in assay [4] and in assay [5] was more than 100 µM throughout.

Consider `CC#CC1C(OC(=O)c2ccccc2)CCCC1(CI)N=[N+]=[N-]` (stereo not drawn), for which the TGI in assay [6], in assay [1], in assay [2], in assay [3] and in assay [4] was more than 100 µM throughout.

As for `CS/C(C)=N/OC(=O)NCCCCNc1ccc(N=[N+]=[N-])cc1`, the TGI in assay [1], in assay [2], in assay [3], in assay [4] and in assay [5] was more than 100 µM each time.

Consider `C=C1CCC2[C@@H](CCC3[C@]2(C)CCC[C@]3(C)C(=O)OC)C1CCO` (stereo partly drawn), for which the TGI in assay [6] is 36.6 µM; in assay [1], 19.7 µM; in assay [2], 24.9 µM; in assay [3] it was 26.1 µM; in assay [4], 26.4 µM; in assay [5] it was 28.1 µM.

Take `N.N.NCCCCCCN.O=C([O-])CC(=O)[O-].O=C([O-])CC(=O)[O-].[Pt+4].[Pt+4]`: the GI50 in assay [6] was more than 100 µM; in assay [1] it was 38.7 µM; in assay [2], 26.6 µM; in assay [3], more than 86.3 µM; in assay [4] it was 47.7 µM; in assay [5], more than 100 µM. Moreover, the TGI in assay [6], in assay [1], in assay [2], in assay [3], in assay [4] and in assay [5] was more than 100 µM in each case.

With `CC(=O)NC1CC2Oc3ccc(C)cc3C(C)(O2)C1O` (stereo not drawn), the TGI in assay [6], in assay [1], in assay [3], in assay [4] and in assay [5] was more than 100 µM each time.

On to `COC(=O)C1=C(C(=O)OC)SC(=C(N=Nc2ccccc2)c2ccccc2)S1`, for which the TGI in assay [6], in assay [1], in assay [2], in assay [3], in assay [4] and in assay [5] was more than 100 µM throughout.

`C[C@@H](NC1CCC[C@H]1O)c1ccccc1` (stereo partly drawn): the TGI in assay [6], in assay [1], in assay [2], in assay [3], in assay [4] and in assay [5] was more than 100 µM each time.

As for `C/C=C/C=C/CCCCCCCCCCCCCC1(OC)C=CC(CC(=O)OC)OO1` (stereo not drawn), the TGI in assay [6] was 39 µM; in assay [1] it was 22.4 µM; in assay [2], 3.44 µM; in assay [3], more than 50.1 µM; in assay [4], 31.2 µM; in assay [5] it was 28.7 µM. Further, the GI50 in assay [2] was 1.6 µM.

As for `CCN(CC)CC(C(=O)Nc1c(C)cccc1C)/C(C)=N\NC(=O)c1ccncc1` (stereo not drawn), the TGI in assay [6], in assay [1], in assay [2], in assay [4] and in assay [5] was more than 100 µM in each case.

For the molecule `C1CCOC2(CCC3(CC2)OCCCCO3)OC1`, the TGI in assay [6], in assay [1], in assay [2], in assay [3], in assay [4] and in assay [5] was more than 100 µM each time.

For the molecule `C=CC1C(OC2OC(CO)C(O)C(O)C2O)OC=C(C(=O)OC)C1CC=O` (stereo not drawn), the TGI in assay [6], in assay [1], in assay [3], in assay [4] and in assay [5] was more than 100 µM each time.

As for `CC(C)C12C=CC(C)(CC1)n1c(=O)c3cc4ccccc4cc3c(=O)n12` (stereo not drawn), the TGI in assay [6], in assay [1], in assay [2], in assay [3], in assay [4] and in assay [5] was more than 100 µM in each case.

As for `CCC(=O)N(O)C(C)(C)C`, the TGI in assay [1], in assay [2], in assay [3], in assay [4] and in assay [5] was more than 100 µM throughout.

`CS/C(=N\c1nccs1)NC(=O)c1cccc(Cl)c1`: the TGI in assay [6], in assay [1], in assay [2], in assay [3], in assay [4] and in assay [5] was more than 100 µM each time.

As for `O=C(CCc1cc(-c2ccccc2)nc(=S)[nH]1)Nc1ccccc1[N+](=O)[O-]`, the TGI in assay [6], in assay [1], in assay [2], in assay [3], in assay [4] and in assay [5] was more than 100 µM each time.

Turning to `N#Cc1cc([N+](=O)[O-])ccc1NC(=O)/C(=N/N)C(C(=O)c1ccc(Cl)c(Cl)c1)C1OC(=O)c2ccccc21` (stereo not drawn), the TGI in assay [6], in assay [2], in assay [3], in assay [4] and in assay [5] was more than 100 µM throughout.

On to `C=CCNC(=O)NCCCC(NC(C)=O)C(=O)NCc1ccccc1` (stereo not drawn), for which the TGI in assay [6], in assay [1], in assay [2], in assay [3], in assay [4] and in assay [5] was more than 100 µM each time.

For the molecule `COc1cccc2nc3cc(C)c(C)cc3nc12`, the TGI in assay [6], in assay [1], in assay [2], in assay [3], in assay [4] and in assay [5] was more than 100 µM in each case.

On to `CCC1CCc2c(OC)ccc(OCC(=O)O)c2C1=O` (stereo not drawn), for which the TGI in assay [6], in assay [1], in assay [3], in assay [4] and in assay [5] was more than 100 µM in each case.

Take `COC(=O)c1cc(-c2cccn2C)c2c(c1C(=O)OC)c1ccccc1n2C`: the TGI in assay [6], in assay [1], in assay [3], in assay [4] and in assay [5] was more than 100 µM throughout.

In the case of `O=c1[nH]c(-c2ccc(-c3nc4cc([N+](=O)[O-])ccc4c(=O)[nH]3)cc2)nc2cc([N+](=O)[O-])ccc12`, the TGI in assay [6], in assay [1], in assay [2], in assay [3], in assay [4] and in assay [5] was more than 100 µM throughout.

Consider `CCCC(Sc1ccccc1)P(=O)(c1ccccc1)c1ccccc1` (stereo not drawn), for which the TGI in assay [1], in assay [2], in assay [3], in assay [4] and in assay [5] was more than 100 µM throughout.

Consider `C=CCC(OCCOCC)c1cc(OCCOCC)ccc1OC` (stereo not drawn), for which the TGI in assay [6], in assay [1], in assay [2], in assay [3], in assay [4] and in assay [5] was more than 100 µM throughout.

For `COc1cc(/C=C/C(=O)c2sc(NNC(C)=O)nc2C)ccc1O`, the TGI in assay [6], in assay [1], in assay [2], in assay [3], in assay [4] and in assay [5] was more than 100 µM throughout.
